PubChem BioAssay AID1963973 (Molecular Pharmacology Branch, DTP, NCI, 2024)
“And” between values parts separate entries of the source, which are not always exact repeats. Identical values can stand only once.

Test system: 883617-216-R-J1-PDC tumor spheroids, viability
Test: Anticancer human tumor 883617-216-R-J1-PDC patient-derived bladder carcinoma cell line growth inhibition [PI3K]
Details: spheroids with HUVEC and MSC; for viability, T/C: stronger effect = lower value
From the text: Combinatorial screen of targeted agents with the PI3K inhibitors inavolisib, alpelisib, duvelisib, and copanlisib in multi-cell type tumor spheroids
A high-throughput screen of multi-cell type tumor spheroids was designed to identify active combinations of targeted small molecules and PI3K pathway inhibitors. Complex spheroids include a stromal component modeled by human endothelial cells (HUVEC) and fibroblasts modeled by human mesenchymal stem cells (MSCs). The concentration ranges selected for each drug and investigational agent were based upon clinically achievable concentrations if the clinical Cmax of the agent was known.
Compounds. The drugs and investigational agents: inavolisib (NSC800729), alpelisib (NSC765974), duvelisib (NSC772469), copanlisib (NSC816437), ipatasertib (NSC767898), afuresertib (NSC778305), talazoparib (NSC767125), sapanisertib (NSC764658), selumetinib (NSC741078), tovorafenib (DAY101, NSC766906), vemurafenib (NSC761431), ravoxertinib (NSC781343), sotorasib (NSC818433), MRTX1133 (NSC 836407), abemaciclib (NSC 768073), palbociclib (NSC758247), venetoclax (NSC 766270), SY5609 (NSC837396), enzalutamide (NSC755605), and darolutamide (NSC825331), were obtained from the National Cancer Institute (NCI) Developmental Therapeutics Program Chemical Repository. The FDA-approved anticancer drug set is available from the NCI Developmental Therapeutics Program. […] The stock solutions were prepared in dimethyl sulfoxide (DMSO, Sigma-Aldrich, St. Louis, MO, cat. D2650) at 800-fold the tested concentration and stored at -70 degrees C prior to their use. All drugs and investigational agents were tested over a range starting from a high concentration at or near the clinical Cmax and decreasing in half-log increments. If the clinical Cmax for an agent had not been determined, the highest concentration tested was 10 microM.
Cell Culture. All cells were maintained in an incubator at 37 degrees C and 5% CO2 with 95% humidity. The PDC lines were cultured according to standard operating procedures established by the NCI PDMR (https://pdmr.cancer.gov/sops/default.htm). All PDCs were thawed and cultured in Matrigel-coated flasks prepared with a working solution of 1X Ham's F-12 nutrient mix, without supplementation (Invitrogen, Waltham, MA, cat. 11765054), 100 U/mL penicillin-streptomycin (Invitrogen, cat. 15140122), and 2.5% Matrigel (Corning Inc., Corning, NY, cat. 354248) for the first three passages. The 354836-022-R-J1-PDC, 475296-252-R-J1-PDC, and 997726-040-R-J2-PDC lines were cultured in 6A media, which includes advanced DMEM/F-12 (Thermo Fisher Scientific, cat. 12634028), 10 mM HEPES (Thermo Fisher Scientific, cat. 15630080), 1X GlutaMAX supplement (Thermo Fisher Scientific, cat. 35050061), 0.1 mg/mL primocin (InvivoGen, San Diego, CA, cat. ant-pm-2), 10% defined fetal bovine serum, heat inactivated (HyClone Laboratories Inc., Logan, UT, cat. SH30070.03HI), 50% L-WRN conditioned media (ATCC, cat. CRL-3276), 1.25 mM N-Acetyl-L-cysteine (Sigma-Aldrich, cat. A9165), 10 mM nicotinamide (Sigma-Aldrich, cat. N0636), 1X B-27 supplement (Thermo Fisher Scientific, cat. 17504044), 1X N-2 supplement (Thermo Fisher Scientific, cat. 17502048), and 10 microM Y-27632 dihydrochloride (Tocris Bioscience, Bristol, United Kingdom, cat. 1254). The 624824-186-R-J2-PDC line was cultured in 6C/Colon 1B media, which includes all 6A media components plus 50 ng/mL human EGF recombinant protein (Thermo Fisher Scientific, cat. PHG0311). […]

[1] = compound alone, run of 04/24/2023
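Note: spheroids exposed to agents for 7 days before the viability read.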

Row | IC50 (curve of compound) | SMILES | viability, T/C (compound 0.0316 µM) | viability, T/C (compound 0.1 µM) | viability, T/C (compound 0.316 µM) | viability, T/C (compound 1 µM) | viability, T/C (compound 3.16 µM) | viability, T/C (compound 10 µM) | viability, T/C (compound 0.00316 µM) | viability, T/C (compound 0.01 µM) | further results
1 | – | C=CC(=O)N1CCN(c2nc(=O)n(-c3c(C)ccnc3C(C)C)c3nc(-c4c(O)cccc4F)c(F)cc23)C(C)C1 (centres undefined) | 61.8% [middle of 4 runs] | 48% [middle of 4 runs] | 51.2% [middle of 4 runs] | 58.9% [middle of 4 runs] | 74.7% [middle of 4 runs] | 66.4% [middle of 4 runs] | – | – | –
2 | 0.0985 µM and > 0.1 µM and 0.0797 µM | CC(=O)c1c(C)c2cnc(Nc3ccc(N4CCNCC4)cn3)nc2n(C2CCCC2)c1=O | 71.2% [middle of 4 runs] | 47.9% [middle of 4 runs] | – | – | – | – | 76.6% [middle of 4 runs] | 87.7% [middle of 4 runs] | viability, T/C (compound 0.000316 µM): 109% [middle of 4 runs]; viability, T/C (compound 0.001 µM): 91.3% [middle of 4 runs]
3 | 591 nM [middle of 4 runs] | CC(C)NCC(C(=O)N1CCN(c2ncnc3c2C(C)CC3O)CC1)c1ccc(Cl)cc1 (centres undefined) | 93.7% [middle of 4 runs] | 77.3% [middle of 4 runs] | 68.3% [middle of 4 runs] | 40.5% [middle of 4 runs] | 17.1% [middle of 4 runs] | 7.67% [middle of 4 runs] | – | – | –
4 | 27.6 nM [middle of 4 runs] | CC(C)n1nc(-c2ccc3oc(N)nc3c2)c2c(N)ncnc21 | 47.2% [middle of 4 runs] | 20.2% [middle of 4 runs] | – | – | – | – | 87.5% [middle of 4 runs] | 73% [middle of 4 runs] | viability, T/C (compound 0.000316 µM): 95.2% [middle of 4 runs]; viability, T/C (compound 0.001 µM): 90.4% [middle of 4 runs]
5 | – | CC(Nc1ccc2c(c1)OCCn1cc(N3C(=O)OCC3C(F)F)nc1-2)C(N)=O (centres undefined) | 71.5% [middle of 8 runs] | 40.2% [middle of 8 runs] | 29.8% [middle of 8 runs] | 18.9% [middle of 8 runs] | – | – | 96.5% [middle of 8 runs] | 91.7% [middle of 8 runs] | IC50 [1]: 72 nM [middle of 8 runs]
6 | – | CC(Nc1ncnc2nc[nH]c12)c1cc2cccc(Cl)c2c(=O)n1-c1ccccc1 (centres undefined) | 98.3% [middle of 8 runs] | 95.9% [middle of 8 runs] | 94.8% [middle of 8 runs] | 85.6% [middle of 8 runs] | 66.2% [middle of 8 runs] | 50.7% [middle of 8 runs] | – | – | –
7 | > 10 µM and 5.36 µM and 5.66 µM | CC1(C)CCC(CN2CCN(c3ccc(C(=O)NS(=O)(=O)c4ccc(NCC5CCOCC5)c([N+](=O)[O-])c4)c(Oc4cnc5[nH]ccc5c4)c3)CC2)=C(c2ccc(Cl)cc2)C1 | 105% [middle of 4 runs] | – | – | 94.3% [middle of 4 runs] | 92.8% [middle of 4 runs] | – | – | – | –
8 | < 0.0316 µM | CC1(C)CCC(Nc2ncc(C(F)(F)F)c(-c3c[nH]c4c(P(C)(C)=O)c(C#N)ccc34)n2)CN1 (centres undefined) | 38% [middle of 4 runs] | 31.7% [middle of 4 runs] | 28.7% [middle of 4 runs] | 30% [middle of 4 runs] | 16.9% [middle of 4 runs] | 0.37% [middle of 4 runs] | – | – | –
9 | 4.76 µM [middle of 4 runs] | CCCS(=O)(=O)Nc1ccc(F)c(C(=O)c2c[nH]c3ncc(-c4ccc(Cl)cc4)cc23)c1F | 99.5% [middle of 4 runs] | 98.2% [middle of 4 runs] | 97% [middle of 4 runs] | – | 73.8% [middle of 4 runs] | 9.39% [middle of 4 runs] | – | – | –
10 | – | CCN1CCN(Cc2ccc(Nc3ncc(F)c(-c4cc(F)c5nc(C)n(C(C)C)c5c4)n3)nc2)CC1 | 75.5% [middle of 4 runs] | 59% [middle of 4 runs] | 56.6% [middle of 4 runs] | 47.2% [middle of 4 runs] | – | – | 92% [middle of 4 runs] | 78.9% [middle of 4 runs] | –
11 | > 10 µM | CNC(=O)c1ccc(N2C(=S)N(c3ccc(C#N)c(C(F)(F)F)c3)C(=O)C2(C)C)cc1F | 94.7% [middle of 4 runs] | – | 99.7% [middle of 4 runs] | 98.9% [middle of 4 runs] | 101% [middle of 4 runs] | – | – | – | –
12 | – | COc1c(OCCCN2CCOCC2)ccc2c3n(c(=NC(=O)c4cnc(N)nc4)nc12)CCN3 | 40% [middle of 8 runs] | 15.4% [middle of 8 runs] | 4.37% [middle of 7 runs] | 3.24% [middle of 8 runs] | – | – | 93.8% [middle of 8 runs] | 70.5% [middle of 8 runs] | IC50 (compound alone, run of 04/25/2023): 20.7 nM [middle of 8 runs]
13 | – | Cc1nc(NC(=O)N2CCCC2C(N)=O)sc1-c1ccnc(C(C)(C)C(F)(F)F)c1 (centres undefined) | 92.1% [middle of 8 runs] | 74.7% [middle of 8 runs] | 49.1% [middle of 8 runs] | 28.3% [middle of 8 runs] | 12.5% [middle of 8 runs] | 7.52% [middle of 8 runs] | – | – | IC50 [1]: 316 nM [middle of 8 runs]
14 | 52.5 nM [middle of 4 runs] | Cn1cnc2c(F)c(Nc3ccc(Br)cc3Cl)c(C(=O)NOCCO)cc21 | – | – | – | – | – | – | – | – | viability, T/C (compound 0.00949 µM): 73.6% [middle of 4 runs]; viability, T/C (compound 0.03 µM): 54.3% [middle of 4 runs]; viability, T/C (compound 0.0949 µM): 43.7% [middle of 4 runs]; viability, T/C (compound 0.3 µM): 32.2% [middle of 4 runs]; viability, T/C (compound 0.949 µM): 34.6% [middle of 4 runs]; viability, T/C (compound 3 µM): 20.2% [middle of 4 runs]
15 | 571 nM [middle of 4 runs] | Cn1ncc(Cl)c1-c1cc(C(=O)NC(CN)Cc2cccc(F)c2)sc1Cl (centres undefined) | 98.2% [middle of 4 runs] | 85% [middle of 4 runs] | 63.8% [middle of 4 runs] | 34.5% [middle of 4 runs] | 13.8% [middle of 4 runs] | – | – | – | –
16 | > 10 µM and 8.22 µM | Cn1nccc1Nc1nccc(-c2ccn(C(CO)c3ccc(Cl)c(F)c3)c(=O)c2)n1 (centres undefined) | 93.7% [middle of 4 runs] | 86.5% [middle of 4 runs] | 87.2% [middle of 4 runs] | 79.5% [middle of 4 runs] | 65.8% [middle of 4 runs] | 58.5% [middle of 4 runs] | – | – | –
17 | > 0.1 µM | Cn1ncnc1[C@H]1c2n[nH]c(=O)c3cc(F)cc(c23)N[C@@H]1c1ccc(F)cc1 | 75.7% [middle of 4 runs] | 58.2% [middle of 4 runs] | – | – | – | – | 91.6% [middle of 4 runs] | 84.4% [middle of 4 runs] | viability, T/C (compound 0.000316 µM): 92.5% [middle of 4 runs]; viability, T/C (compound 0.001 µM): 88.8% (2×) and 83.1% and 89.6%
